Source: publication PMC5645785 (Organic & biomolecular chemistry, 2016)
Like-named read-outs stand apart in the source and are kept apart here.

What was measured:
[1] = biological target: Escherichia coli GS (EcGS) (Escherichia coli, UniProt P0A6U8); assay: EcGS activity, glycogen synthesis direction, absence of ADP; type: biochemical
[2] = biological target: Sucrose synthase 4 (SuSy4) (Solanum tuberosum, UniProt P10691); assay: SuSy4 activity, sucrose synthesis direction, absence of UDP; type: biochemical, Solanum tuberosum L.
[3] = biological target: T1, Rabbit muscle GPa (RMGPa) (Oryctolagus cuniculus, UniProt P00489); assay: RMGPa activity, glycogen phosphorolysis direction; type: biochemical; details: read-out: Km of RMGPa
T1 sequence (P00489 1-843): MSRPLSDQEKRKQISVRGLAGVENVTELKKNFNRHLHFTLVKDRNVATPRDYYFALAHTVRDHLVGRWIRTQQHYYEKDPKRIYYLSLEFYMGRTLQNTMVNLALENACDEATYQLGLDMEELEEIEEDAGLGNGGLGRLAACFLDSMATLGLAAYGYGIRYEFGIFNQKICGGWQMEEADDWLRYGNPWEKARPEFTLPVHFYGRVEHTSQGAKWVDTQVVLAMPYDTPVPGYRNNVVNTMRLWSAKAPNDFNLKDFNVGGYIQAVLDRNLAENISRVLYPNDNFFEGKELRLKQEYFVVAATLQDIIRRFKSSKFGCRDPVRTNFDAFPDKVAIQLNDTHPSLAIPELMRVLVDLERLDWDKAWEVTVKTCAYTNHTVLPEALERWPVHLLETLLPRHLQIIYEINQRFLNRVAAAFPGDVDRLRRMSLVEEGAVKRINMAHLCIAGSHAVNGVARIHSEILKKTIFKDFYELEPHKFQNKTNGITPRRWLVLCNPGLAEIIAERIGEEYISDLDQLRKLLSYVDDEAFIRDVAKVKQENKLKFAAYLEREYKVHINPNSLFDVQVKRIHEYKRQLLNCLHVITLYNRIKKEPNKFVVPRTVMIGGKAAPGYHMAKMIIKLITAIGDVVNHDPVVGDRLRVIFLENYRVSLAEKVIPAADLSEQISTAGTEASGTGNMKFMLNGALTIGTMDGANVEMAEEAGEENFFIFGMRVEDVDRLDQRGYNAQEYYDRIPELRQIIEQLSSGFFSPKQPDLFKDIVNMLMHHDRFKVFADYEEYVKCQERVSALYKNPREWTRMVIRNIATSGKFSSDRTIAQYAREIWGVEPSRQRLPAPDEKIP

[4] = test system: E. coli trehalose-6-phosphate synthase; details: cited from earlier work; for IC50: read-out: IC50 trehalose-6-phosphate synthase

Escherichia coli GS (EcGS), sequence (P0A6U8 whole entry): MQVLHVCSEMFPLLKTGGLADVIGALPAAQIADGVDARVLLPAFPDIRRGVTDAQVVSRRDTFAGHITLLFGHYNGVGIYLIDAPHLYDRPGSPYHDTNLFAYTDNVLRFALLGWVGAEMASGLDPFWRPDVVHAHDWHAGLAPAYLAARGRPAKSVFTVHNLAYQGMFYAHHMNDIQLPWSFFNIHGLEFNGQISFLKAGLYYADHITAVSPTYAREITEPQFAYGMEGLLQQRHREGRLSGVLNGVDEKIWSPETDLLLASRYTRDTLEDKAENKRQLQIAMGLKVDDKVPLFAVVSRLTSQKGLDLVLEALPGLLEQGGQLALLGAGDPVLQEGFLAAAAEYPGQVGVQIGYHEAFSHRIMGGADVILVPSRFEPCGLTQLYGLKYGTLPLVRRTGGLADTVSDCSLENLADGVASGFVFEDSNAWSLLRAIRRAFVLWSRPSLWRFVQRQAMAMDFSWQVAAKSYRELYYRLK
Sucrose synthase 4 (SuSy4), sequence (P10691 whole entry): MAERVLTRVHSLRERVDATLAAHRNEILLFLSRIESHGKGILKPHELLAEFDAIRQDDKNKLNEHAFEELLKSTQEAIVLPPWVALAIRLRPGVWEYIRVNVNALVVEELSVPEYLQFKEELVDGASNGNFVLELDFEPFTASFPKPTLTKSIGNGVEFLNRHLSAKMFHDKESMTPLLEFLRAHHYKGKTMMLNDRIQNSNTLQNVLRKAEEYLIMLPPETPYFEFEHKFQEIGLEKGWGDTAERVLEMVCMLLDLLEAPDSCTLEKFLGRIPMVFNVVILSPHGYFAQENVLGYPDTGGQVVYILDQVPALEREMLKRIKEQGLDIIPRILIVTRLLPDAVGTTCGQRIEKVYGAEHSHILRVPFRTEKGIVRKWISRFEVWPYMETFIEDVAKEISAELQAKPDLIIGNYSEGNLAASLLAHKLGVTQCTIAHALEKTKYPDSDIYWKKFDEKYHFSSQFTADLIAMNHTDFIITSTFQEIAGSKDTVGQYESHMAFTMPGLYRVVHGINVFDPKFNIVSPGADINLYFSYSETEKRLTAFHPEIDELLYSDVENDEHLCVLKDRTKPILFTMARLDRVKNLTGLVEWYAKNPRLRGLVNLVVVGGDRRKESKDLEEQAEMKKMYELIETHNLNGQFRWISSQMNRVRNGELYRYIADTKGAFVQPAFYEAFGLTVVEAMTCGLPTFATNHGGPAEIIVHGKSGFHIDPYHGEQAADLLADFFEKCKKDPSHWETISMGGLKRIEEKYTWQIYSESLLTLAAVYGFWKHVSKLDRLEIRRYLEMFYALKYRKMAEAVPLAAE

Nc1ncnc2c1ncn2[C@@H]1O[C@H](COP(=O)(O)OP(=O)(O)O)[C@@H](O)[C@H]1O [ADP]
Ki ([1]; read-out: Ki EcGS, substrate ADPG): 87 ± 6 µM
Type of Inhibition EcGS ([1]; with respect to ADPG): Competitive

O=c1ccn([C@@H]2O[C@H](COP(=O)(O)OP(=O)(O)O)[C@@H](O)[C@H]2O)c(=O)[nH]1 [UDP]
Ki ([2]; read-out: Ki SuSy4, substrate UDPG): 145 ± 48 µM
Type of Inhibition SuSy4 ([2]; with respect to UDPG): Competitive

OC[C@H]1NC[C@@H](O)[C@@H]1O [DAB, 1,4-dideoxy-1,4-imino-D-arabinitol]
IC50 [1]: 1320 ± 10 µM
IC50 [2]: 246.5 ± 0.1 µM

O=P(O)(O)O [Pi, inorganic phosphate]
Km [3]: 1410 µM

validoxylamine-6′-phosphate
improvement of IC50 by UDP ([4]; 0.15 mM UDP): ca. 100 fold
IC50 ([4]; addition of 0.15 mM UDP): 41 µM
IC50 ([4]; without UDP): 5300 µM

OC[C@@H]1NC[C@H](O)[C@H]1O [LAB]
Activity (%) EcGS ([1]; remaining activity, 0.5 mM inhibitor, 2 mM ADPG and 4 mg mL−1 glycogen): 89%
Activity (%) SuSy4 ([2]; remaining activity, 0.5 mM inhibitor, 5 mM UDPG and 30 mM fructose): 89%
